Data as given in patent publication US20070249729A1, “Method of Treating Elevated Plasma Homocysteine Levels in Esrd Patients” (priority 2003, published 2007).
Where “and” joins values, the source holds several entries; their conditions need not be identical. Equal values may be shown once. Each block holds one molecule with its values, some of them ahead of it.

Legend:
[1] = tested on: total plasma Hcy and cysteine; test: In vivo pilot study, 3 ESRD hemodialysis patients, single iv Mesna: intra-dialytic plasma tHcy and cysteine; design: species or system human
Excerpt: 3 vitamin supplemented ([…], Landmark Medical Systems Inc. Unionville, Ontario) maintenance hemodialysis patients (2 males, 1 female) were recruited from the dialysis unit at London Health Sciences Centre-University Campus. Inclusion criteria were any vitamin supplemented patients on thrice weekly hemodialysis for at least 90 days who were willing to sign a letter of informed consent. Patients were excluded from the study if they had serum albumin≦30 g/L. The study protocol was approved by the human subject research ethics board at the University of Western Ontario. Patients were dialyzed with Fresenius Optiflux hollow fiber dialyzers (Fresenius AG, Bad Homburg, Germany). […] On day 5 (corresponding to the third dialysis session) blood samples were also drawn at various times throughout the dialysis treatment (0.5, 1.0, 2.0 and 3.0 hours) to determine baseline kinetic data. Undiluted ultrafiltrate was obtained from 2 patients by stopping the dialysate flow while maintaining the patient on ultrafiltration. Once 200 ml of dialysate had been displaced from the dialyzer, an undiluted ultrafiltrate sample was drawn from a port specially installed for the study. On the treatment day (a mid-week dialysis session corresponding to day 7 of the study), a single 5 mg/kg dose of Mesna was infused directly into the venous return on the dialysis machine over 5 minutes. […] Undiluted ultrafiltrate was also collected from 2 of the patients as described above. Pre- and post-dialysis blood samples were also drawn on each of the 3 subsequent dialysis treatments (corresponding to days 9, 12 and 14) to determine the duration of Mesna's action and how long it remains in the blood. […] Plasma and ultrafiltrate were stored at -20° C. until analysis. […] Results are shown as mean +/-SD. Intra-dialytic changes in tHcy and cysteine concentrations were analyzed by a paired students t-test.

protein bound Hcy = protein bound Hcy (Homo sapiens, UniProt P02768); test: In vitro thiol exchange assay (free dialyzable Hcy in plasma/serum); details: for AUC of free Hcy vs time: 300 μM, plasma of healthy subjects, n=6, mean +/-SE
protein bound Hcy, sequence (P02768 25-609): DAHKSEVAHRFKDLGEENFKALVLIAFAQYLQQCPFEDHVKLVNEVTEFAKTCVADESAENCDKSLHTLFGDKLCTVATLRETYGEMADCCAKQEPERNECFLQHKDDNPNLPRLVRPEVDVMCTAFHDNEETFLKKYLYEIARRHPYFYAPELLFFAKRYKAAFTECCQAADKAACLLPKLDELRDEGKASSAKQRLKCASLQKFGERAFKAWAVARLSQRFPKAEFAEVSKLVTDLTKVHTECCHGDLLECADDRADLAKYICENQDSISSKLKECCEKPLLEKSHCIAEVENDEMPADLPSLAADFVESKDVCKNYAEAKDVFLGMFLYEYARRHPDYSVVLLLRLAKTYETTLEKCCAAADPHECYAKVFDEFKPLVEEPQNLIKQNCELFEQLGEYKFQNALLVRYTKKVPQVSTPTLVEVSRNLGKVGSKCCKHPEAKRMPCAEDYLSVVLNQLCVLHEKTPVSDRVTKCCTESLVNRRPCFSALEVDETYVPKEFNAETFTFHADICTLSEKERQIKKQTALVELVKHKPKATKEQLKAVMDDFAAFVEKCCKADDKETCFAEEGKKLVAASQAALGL
Protocol: To determine the efficacy of Mesna in vitro a thiol exchange assay was developed. This assay evaluates the ability of thiol-containing drugs to exchange with protein bound Hcy and other thiols yielding a larger free, dialyzable fraction of Hcy. 60 mL of blood was drawn from 6 healthy subjects and plasma was obtained by centrifugation at 1500×g. D,L Homocysteine was then added to each plasma sample to a final concentration of 30 μM. The samples were allowed to equilibrate at 4° C. for 72 hours to allow covalent, disulfide bonding of Hcy to plasma proteins. To conduct each assay, 380 μL of the aforementioned plasma was pipetted into a 1.7 mL polypropylene snap-cap tube. 20 uL of Mesna (diluted in 4 mM ethylenediaminetetraacetic acid disodium salt (EDTA), pH=7) was then added to the sample to final concentrations ranging from 0 μM (EDTA vehicle) to 10 000 μM. The sample was incubated for 30 minutes at 37° C. 50 μL aliquots were removed at 0, 2, 5, 10, 15 and 30 at which time plasma proteins were precipitated with 25 μL of 15% sulphosalicylic acid. […] Results for each concentration of Mesna are mean +/−SE, n=6.
Numerous compounds that may modulate protein binding and thiol exchange accumulate in the serum of patients with end-stage renal disease (ESRD). To verify that none of these compounds alter Mesna's exchange with protein bound Hcy, a single concentration of Mesna (300 μM) was tested in a thiol exchange assay (described in Example 4) in serum from patients with ESRD or healthy controls.
The in vitro thiol exchange potential of Mesna was compared with another thiol-containing drug, n-acetylcysteine (NAC) by the thiol exchange assay described in Example 4. 300 μM NAC was compared with 150 and 300 μM Mesna in the plasma of healthy subjects.

[2] = cited from earlier work
[3] = Tolerability of Mesna in ESRD hemodialysis patients; type: in vivo, human
Protocol: To assess baseline total plasma Hcy concentrations, 5 ml blood samples (EDTA) were drawn pre- and post-dialysis for all 7 dialysis sessions during the 14 day study period. On day 5 (corresponding to the third dialysis session) blood samples were also drawn at various times throughout the dialysis treatment (0.5, 1.0, 2.0 and 3.0 hours) to determine baseline kinetic data. Undiluted ultrafiltrate was obtained from 2 patients by stopping the dialysate flow while maintaining the patient on ultrafiltration. Once 200 ml of dialysate had been displaced from the dialyzer, an undiluted ultrafiltrate sample was drawn from a port specially installed for the study. On the treatment day (a mid-week dialysis session corresponding to day 7 of the study), a single 5 mg/kg dose of Mesna was infused directly into the venous return on the dialysis machine over 5 minutes. Blood samples were drawn pre-dialysis, 4 minutes after Mesna administration, 0.5, 1.0, 2.0, 3.0 hours and post-dialysis. Undiluted ultrafiltrate was also collected from 2 of the patients as described above. Pre- and post-dialysis blood samples were also drawn on each of the 3 subsequent dialysis treatments (corresponding to days 9, 12 and 14) to determine the duration of Mesna's action and how long it remains in the blood. All blood samples were immediately placed on ice and centrifuged within 30 minutes at 1500×g for 10 minutes. […]

[4] = Intra-dialytic Mesna kinetics in 3 ESRD hemodialysis patients; type: in vivo, human
Protocol: To assess baseline total plasma Hcy concentrations, 5 ml blood samples (EDTA) were drawn pre- and post-dialysis for all 7 dialysis sessions during the 14 day study period. On day 5 (corresponding to the third dialysis session) blood samples were also drawn at various times throughout the dialysis treatment (0.5, 1.0, 2.0 and 3.0 hours) to determine baseline kinetic data. Undiluted ultrafiltrate was obtained from 2 patients by stopping the dialysate flow while maintaining the patient on ultrafiltration. Once 200 ml of dialysate had been displaced from the dialyzer, an undiluted ultrafiltrate sample was drawn from a port specially installed for the study. On the treatment day (a mid-week dialysis session corresponding to day 7 of the study), a single 5 mg/kg dose of Mesna was infused directly into the venous return on the dialysis machine over 5 minutes. Blood samples were drawn pre-dialysis, 4 minutes after Mesna administration, 0.5, 1.0, 2.0, 3.0 hours and post-dialysis. Undiluted ultrafiltrate was also collected from 2 of the patients as described above. Pre- and post-dialysis blood samples were also drawn on each of the 3 subsequent dialysis treatments (corresponding to days 9, 12 and 14) to determine the duration of Mesna's action and how long it remains in the blood. All blood samples were immediately placed on ice and centrifuged within 30 minutes at 1500×g for 10 minutes. Plasma and ultrafiltrate were stored at −20° C. until analysis.
Therefore, the inventors modified the chromoatographic conditions such that 4% acetonitrile was run for 7 minutes and then a gradient of 4% to 70% acetonitrile was used from 7 to 20 minutes.

[5] = human, in vivo
Protocol: To evaluate the in vivo effect of Mesna on plasma tHcy, 5 maintenance hemodialysis patients were recruited to participate in a single dose pilot study. Blood samples were drawn at selected intervals during a mid-week dialysis session during which no Mesna was given. One week later, subjects received a single, 5 mg/kg, pre-dialysis, intravenous dose of Mesna and blood samples were drawn throughout the dialysis session. Dialysate samples were also collected from 2 patients. Total Hcy and cysteine were measured in plasma and dialysate by the modified method of Jacobsen et al.^20 Mesna caused a profound, rapid decrease in plasma tHcy and cysteine (see FIG. 11 and 12). […] A pre-dialysis plasma sample was also drawn before the next dialysis session 2 days later. Plasma tHcy was 2.3 μM lower with Mesna than control (P=0.047) indicating a residual effect of Mesna on tHcy concentrations.
Concentrations of Mesna were also measured in plasma (n=5) and dialysate (n=2) (see FIG. 13).

plasma tHcy and cysteine = test: Single dose pilot study, 5 maintenance hemodialysis patients: plasma and dialysate tHcy and cysteine; type: in vivo, human
Protocol: Blood samples were drawn at selected intervals during a mid-week dialysis session during which no Mesna was given. One week later, subjects received a single, 5 mg/kg, pre-dialysis, intravenous dose of Mesna and blood samples were drawn throughout the dialysis session. Dialysate samples were also collected from 2 patients. […] A pre-dialysis plasma sample was also drawn before the next dialysis session 2 days later.

[6] = tested on: plasma tHcy, fractional excretion of Hcy; test: Oral Mesna, Hcy clearance in 2 subjects with normal kidney function; type: in vivo, human
Protocol: The effect of oral Mesna on Hcy clearance was also evaluated in 2 subjects with normal kidney function. The subjects fluid loaded by consuming 2 L of water the morning of the study day. An indwelling catheter was inserted into an appropriate arm vein. At the beginning of the study subjects were asked to void urine and 2×5 mL blood samples were drawn for analysis of tHcy and creatinine. Subsequent blood samples were drawn at 0.5, 1.0 and 1.5 hours for determination of baseline tHcy and creatinine. At these times subjects were also asked to void urine for measurement of urinary tHcy, creatinine and urine volume. Subjects were then given a 10 mg/kg oral dose of Mesna. One hour after the dose, subjects were asked to void their urine and 2×5 mL blood samples were drawn for determination of tHcy and creatinine. At 1.5, 2.0, and 2.5 hours after Mesna, blood samples were drawn for tHcy and creatinine analysis. Urine was also collected at these times for determination of urinary Hcy, creatinine and urinary volume. A final blood sample was drawn 4 hours after administration of Mesna. Mesna caused a slow, small (1.5 μM) decrease in plasma tHcy concentration in both subjects (see FIG. 14). Mesna was detectable in plasma however, maximum concentration (mean 88.6 μM) was less than the 5 mg/kg administered intravenously to dialysis patients (FIG. 15). The fractional excretion of Hcy ([CLHcy/CLCreat]*100) was assessed in the presence and absence of Mesna (see FIG. 16). In the absence of Mesna the fractional excretion of Hcy was only 0.1%. When Mesna was administered the fractional Hcy excretion raised 60 fold to 6.0%.

plasma Hcy = details: iv Mesna for 5 days, cancer chemotherapy patients, from 12.3 μmol/L; cited from earlier work
albumin bound Hcy = albumin bound Hcy (Homo sapiens, UniProt P02768); details: 305 μmol/L Mesna
albumin bound Hcy, sequence (P02768 25-609): as above
Protocol: Plasma was supplemented with reduced homocysteine (30 μmol/L) and allowed to equilibrate with protein and endogenous thiols for 72 hours. Mesna or diluent (control) was then added to the plasma and incubated at 37° C. for 15 minutes. 1 ml of plasma was pipetted into a micropartition device and centrifuged at 1500×g for 10 minutes. Free (dialyzable) Hcy was then determined in the ultrafiltrate.
30 ml of blood (EDTA) was obtained from a healthy subject with normal renal function. The blood was immediately centrifuged at 1500×g and the plasma was separated. D,L Homocysteine was then added to the plasma to a final concentration of 30 μmol/L. The sample was incubated at 4° C. for 72 hours to allow the homocysteine to covalently bind to protein and other thiols. Mesna was added to 1 ml of plasma to a final concentration of 305 μmol/L. An equal volume of diluent was added to 1 ml of plasma as a control. The plasma (1 ml) was then incubated at 37° C. for 15 minutes after which it was pipetted into an Amicon (Amicon Canada, Oakville, Ontario) type YMT micropartition system for separation of free from protein bound solutes. The micropartition system was centrifuged at 1500 X g for 10 minutes and the ultrafiltrate obtained was stored at −20° C. until analysis.
Total plasma Hcy and other low molecular weight thiols were measured by HPLC-FD after pre-column derivitization as described by Jacobsen et al.^20 Briefly, disulfide bonds were reduced with 1.43 M sodium borohydride. Excess reducing agent was consumed by the addition of 1.2 M HCl after which thiols were derivitized with monobromobimane. Protein was precipitated with 1.5 M perchloric acid and the sample pH was raised to ˜3.5 with a solution of 2M citrate and 10 N NaOH.
Thiol amino acids were separated on a Waters Nova-Pak C18 (150×3.9 mm, 5μ) column. The mobile phase consisted of 4% acetonitrile/25 mM ammonium formate buffer, pH=3.8. Since Mesna is also a low molecular weight thiol it can also be measured as a bimane derivative, although it is very late eluting when the above mentioned chromatographic conditions are used. […]

plasma tHcy = details: oral, 4 weeks of treatment, patients on hemodialysis; cited from earlier work
[7] = isolated perfused rat liver; cited from earlier work
[8] = single 5 mg/kg pre-dialysis iv dose, n=5

- effect on fraction of free dialyzable Hcy (protein bound Hcy; 0 to 10 000 μM Mesna, plasma spiked 30 μM Hcy, n=6): concentration dependent increase
- AUC of thiol exchange, ESRD serum vs. healthy controls (protein bound Hcy; 300 μM Mesna, P>0.05): no significant difference
- AUC of free Hcy vs time (protein bound Hcy): 1023+/−86.0
- time to maximal thiol exchange after Mesna addition (protein bound Hcy; further in vitro studies with plasma): ≤ 2 min
- concentration at 14 study day ([4]; human, plasma, intravenous, 5 mg/kg, end of the study period (day 14)): 13.4 µM
- concentration at 4 min ([4]; human, plasma, shortly after administration, 5 mg/kg iv, 3 patients): 296 µM
- plasma Mesna concentration ([4]; post-dialysis, 5 mg/kg iv, 3 patients): 89.7 ± 32.5 µmol/L
- plasma Mesna concentration ([4]; second patient, ~3.5 hours after administration, at onset of nausea): ~60 µmol/L
- elimination during dialysis [5]: first order elimination
- free Hcy as % of the total plasma Hcy (albumin bound Hcy; 15 minute incubation): 27.2% and 27%
- Hcy in the free dialyzable form (ultrafiltrate) (albumin bound Hcy; 15 minute incubation at 37° C., plasma spiked with 30 μmol/L Hcy): 8.2 µmol/L
Compound: O=S(=O)(O)CCS.[Na] [Mesna, sodium 2-mercaptoethane sulfonic acid]
- effect on post-dialysis cysteine ([1]; 5 mg/kg iv, 3 patients, p=0.009): significant decrease
- effect on post-dialysis tHcy ([1]; 5 mg/kg iv, 3 patients, p=0.035): significant decrease
- pre-dialysis plasma Hcy at second cycle after Mesna ([1]; day 12, all patients): returned to baseline
- time to decrease of total plasma homocysteine after administration ([1]; intravenous Mesna, human subjects): ≤ 30 min
- decrease in pre-dialysis plasma tHcy, day 9 vs day 7 ([1]; patient 1): 3.7 µmol/L
- decrease in pre-dialysis plasma tHcy, day 9 vs day 7 ([1]; patient 2): 1.1 µmol/L
- decrease in pre-dialysis plasma tHcy, day 9 vs day 7 ([1]; patient 3): 3.1 µmol/L
- post-dialysis tHcy concentration ([1]; single iv 5 mg/kg Mesna, 3 ESRD patients): 10.1 µmol/L
- additional decrease of total plasma Hcy compared to dialysis alone ([1]; single iv 5 mg/kg dose during dialysis): 29%
- UF Hcy following Mesna treatment ([1]; undiluted ultrafiltrate, 2 patients): No increase
- pKa of the thiol [2]: 9.1
- tolerability, side effect ([3]; 5 mg/kg iv, two of 3 patients): mild nausea
- dialysate Hcy with Mesna compared to control (plasma tHcy and cysteine; n=2): slight increase
- pre-dialysis plasma tHcy lower with Mesna than control (plasma tHcy and cysteine; next dialysis session 2 days later, P=0.047): 2.3 µM
- post-dialysis plasma cysteine (plasma tHcy and cysteine; [8]): 165.1 ± 7.4 µM
- post-dialysis plasma tHcy (plasma tHcy and cysteine; [8]): 11.6 ± 1.7 µM
- rise of fractional Hcy excretion ([6]; 10 mg/kg oral dose vs absence of Mesna): 60 fold
- decrease in plasma tHcy concentration ([6]; 10 mg/kg oral dose, 2 subjects with normal kidney function): 1.5 µM
- fractional excretion of Hcy ([CLHcy/CLCreat]*100) ([6]; 10 mg/kg oral dose, normal kidney function): 6.0%
- plasma Hcy after Mesna (plasma Hcy): 1.4 µmol/L

- AUC of free Hcy vs time (protein bound Hcy): 642+/−49.7
Compound: CC(=O)N[C@@H](CS)C(=O)O [NAC, n-acetylcysteine]
- effect on pre-dialysis plasma tHcy (plasma tHcy): small, non-significant decrease

Compound: N[C@@H](CS)C(=O)O [cysteine]
- pKa of the thiol [2]: 8.15

Compound: O=S(=O)([O-])CCSSCCS(=O)(=O)[O-].[Na+].[Na+] [diMesna, Mesna disulfide]
- metabolic reduction [7]: reduce diMesna to Mesna

Compound: CN(C)CCOC(c1ccccc1)c1ccccc1.Cn1c(=O)c2[nH]c(Cl)nc2n(C)c1=O [dimenhydrinate]
- time to reversal of nausea symptoms ([3]; administration of dimenhydrinate to patients with Mesna-associated nausea): ≤ 1 min

Compound: N[C@@H](CCS)C(=O)O [homocysteine]
- pKa of the thiol [2]: 8.7
